Reference: patent US20250057963A1, “DISCOVERY OF PIPERLONGUMINE AS A NOVEL E3 LIGASE LIGAND” (University of Florida Research Foundation, Incorporated, priority 2021, published 2025)
“Also recorded” adds a separate entry of the source.

Columns and labels:
[1] = test system: LNCaP, 22RV1, PC3 and DU145 prostate cancer cell lines; assay: Viability (MTS) assay in prostate cancer cell lines; assay type: cell-based, Human; conditions: all four cell lines LNCaP, 22RV1, PC3, DU145; MTS, 72 h treatment
Procedure: All the cell lines were maintained in a humidified incubator at 37° C. and 5% CO2. […] The data were expressed as average % cell viability and fitted in non-linear regression curves using GraphPad Prism 9 (GraphPad Software, La Jolla, CA, USA).

CDK10 = molecular target: T1, CDK10 (Homo sapiens, UniProt Q15131); assay: CDK10 degradation in MOLT4 cells (TMT proteomics, immunoblot); assay type: cell-based
T1 construct: endogenous in cells; host or cells: MOLT4
T1 sequence (Q15131 whole entry): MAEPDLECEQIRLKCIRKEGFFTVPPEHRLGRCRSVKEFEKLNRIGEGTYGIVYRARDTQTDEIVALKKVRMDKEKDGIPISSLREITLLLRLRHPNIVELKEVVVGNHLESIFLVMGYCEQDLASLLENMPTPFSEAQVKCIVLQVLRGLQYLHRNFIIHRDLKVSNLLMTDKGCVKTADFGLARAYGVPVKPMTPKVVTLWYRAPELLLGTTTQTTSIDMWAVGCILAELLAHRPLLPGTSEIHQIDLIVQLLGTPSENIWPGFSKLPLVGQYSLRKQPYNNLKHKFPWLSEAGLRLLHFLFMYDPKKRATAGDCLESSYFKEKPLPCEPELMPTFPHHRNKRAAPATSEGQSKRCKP
Procedure: Cells were collected and lysed in RIPA lysis buffer (Cat. #BP-115DG, Boston Bio Products, Ashland, MA, USA) supplemented with protease and phosphatase inhibitor cocktails (Cat. #PPC1010, Sigma-Aldrich, St. Louis, MO, USA). Protein samples were made and immunoblotting was performed as described previously (Khan et al., 2019; Lv et al., 2021). Antibodies purchased from Cell Signaling Technologies (CST) and the dilutions are as follows: Biotin (Cat. No. 5571S, 1:1000), PARP (Cat. No. 9542S, 1:1000), c-Myc (Cat. No. 5605S, 1:1000), MCL1 (Cat. No. 5453S, 1:1000), and ALK (Cat. No. 3791S, 1:1000). KEAP1 antibody was purchased from Proteintech (Cat. No. 10503-2-AP, 1:1000). CDK9 antibody was purchased from Santa Cruz (Cat. No. sc-13130, 1:500). V5-tag antibody was purchased from Bethyl (Cat. No. A190-120P, 1:1000). j-actin antibody was purchased from MP Biomedicals (Cat. No. 8691001, 1:20 000).
Sample Preparation and LC-MS/MS analysis. […]
Data processing and analysis. Proteins were identified and MS3 reporter ions quantified using MaxQuant (version 2.0.3.0; Max Planck Institute) against the Homo sapiens UniprotKB database (March 2021) with a parent ion tolerance of 3 ppm, a fragment ion tolerance of 0.5 Da, and a reporter ion tolerance of 0.003 Da. […]

[2] = molecular target: T2, CDK9: 955: KEAP1 ternary complex (Homo sapiens, UniProt P50750+Q14145); assay: NanoBRET ternary complex formation assay in live 293T cells; assay type: cell-based; conditions: HiBit-CDK9 and Halo-KEAP1 in 293T cells, 6 h
T2 construct: expressed in transfected cells; host or cells: 293T
T2 sequence (P50750 whole entry): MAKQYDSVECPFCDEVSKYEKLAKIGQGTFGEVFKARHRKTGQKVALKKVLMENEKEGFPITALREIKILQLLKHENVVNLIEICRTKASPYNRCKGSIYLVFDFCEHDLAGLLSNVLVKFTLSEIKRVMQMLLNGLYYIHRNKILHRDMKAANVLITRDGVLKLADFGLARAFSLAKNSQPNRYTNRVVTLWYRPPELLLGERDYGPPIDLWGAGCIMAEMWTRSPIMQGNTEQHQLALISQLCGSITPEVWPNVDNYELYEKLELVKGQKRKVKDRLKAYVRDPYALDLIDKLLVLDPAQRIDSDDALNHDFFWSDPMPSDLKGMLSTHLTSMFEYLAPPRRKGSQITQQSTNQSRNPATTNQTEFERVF
T2 sequence (Q14145 whole entry): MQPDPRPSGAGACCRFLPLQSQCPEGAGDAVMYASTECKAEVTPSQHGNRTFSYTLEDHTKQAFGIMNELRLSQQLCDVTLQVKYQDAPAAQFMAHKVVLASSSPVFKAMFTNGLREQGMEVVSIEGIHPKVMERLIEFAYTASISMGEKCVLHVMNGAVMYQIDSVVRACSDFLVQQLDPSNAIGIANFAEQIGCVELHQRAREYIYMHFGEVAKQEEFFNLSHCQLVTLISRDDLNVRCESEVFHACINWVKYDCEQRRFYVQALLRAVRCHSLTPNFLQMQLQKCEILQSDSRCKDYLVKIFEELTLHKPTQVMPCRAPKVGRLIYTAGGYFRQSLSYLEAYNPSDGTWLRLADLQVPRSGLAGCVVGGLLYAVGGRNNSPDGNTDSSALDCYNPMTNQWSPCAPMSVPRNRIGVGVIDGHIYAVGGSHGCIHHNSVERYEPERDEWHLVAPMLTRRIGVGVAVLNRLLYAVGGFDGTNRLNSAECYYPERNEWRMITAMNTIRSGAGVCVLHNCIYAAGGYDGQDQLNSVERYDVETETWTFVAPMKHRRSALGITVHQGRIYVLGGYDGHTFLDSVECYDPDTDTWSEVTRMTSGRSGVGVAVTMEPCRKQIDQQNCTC
Source text: CMV HiBit (Cat. No. CS1956B03) was purchased from Promega. Plasmid HaloTag-KEAP1 (a gift from Yimon Aye, plasmid #58240) was purchased from Addgene. HiBit-CDK9 were constructed through the Gibson assembly method. The primer pair (5′-[…]atggcaaagcagtacgactcggtggag-3′ and 5′-[…]gaagacgcgctcaaactccgtctggt-3′) and the template HA-CDK9 (a gift from Andrew Rice, plasmid #28102) was used to clone the CDK9 fragment. The primer pair (5′-accagacggagtttgagcgcgtcttc[…]-3′ and 5′-ctccaccgagtcgtactgcttcgccat[…]-3′) and pBit3.1—N(Cat. No. N2361, Promega) were used to clone the vector-containing fragment. The PCR fragments were assembled using NEBuilder® HiFi DNAAssembly Master Mix. DNA sequences in all these plasmids were authenticated by automatic sequencing. […] After treatment, NanoBRET Nano-Glo Substrate (Cat. No. N1662, Promega) was added into the medium, and the contents were mixed by shaking the plate for 30 s before measuring donor and acceptor signals on Biotek plate reader. Dual-filtered luminescence was collected with a 450/50 nm bandpass filter (donor, NanoBiT-CDK9 protein) and a 610-nm longpass filter (acceptor, HaloTag NanoBRET ligand) using an integration time of 0.5 s. mBRET ratios were calculated following the NanoBRET™ Nano-Glo® Detection System (Cat. No. N1662, Promega).

Compound: COc1cc(/C=C/C(=O)N2CCC=CC2=O)cc(OC)c1OCCN1CCN(C(=O)CN2CCC(C(=O)Nc3ncc(SCc4ncc(C(C)(C)C)o4)s3)CC2)CC1 [compound 955, (E)-N-(5-(((5-(tert-butyl)oxazol-2-yl)methyl)thio)thiazol-2-yl)-1-(2-(4-(2-(2,6-dimethoxy-4-(3-oxo-3-(6-oxo-3,6-dihydropyridin-1(2H)-yl)prop-1-en-1-yl)phenoxy)ethyl)piperazin-1-yl)-2-oxoethyl)piperidine-4-carboxamide]
- EC50, anti-proliferation [1]: single digital nM range
- dependence of CDK10 degradation (MG132, MLN4924 pre-treatment) (CDK10): UPS—and CRL-dependent manner; also recorded: proteasome- and CRL-dependent manner
- CDK10 degradation (CDK10; 0.1 μM 955, 1 μM SNS-032): significantly decreased CDK10; also recorded: potently degrade CDK10
- formation of the CDK9:KEAP1 ternary complex [2]: formed a stable ternary complex with CDK9 and KEAP1 in a dose-dependent manner
